{
  "source": "patent US6432881B1",
  "about": "(dated 2002)",
  "data": [
    {"compound": "Cn1nccc1OCc1c(S(C)(=O)=O)ccc(C(=O)C2C(=O)CC(C)(C)CC2=O)c1Cl", "note": "(hydrate or solvate)", "values": [
      {"measurement": "melting point", "result": 82, "unit": "°C"}
    ]}
  ]
}
